The source of these data is US9993522B2, “Treatment of pain by inhibition of USP5 de-ubiquitinase” (UTI LIMITED PARTNERSHIP, priority 2012, dated 2018).

Residues, ends and D or L forms follow the SMILES beside them. *: point of attachment. Cbz = O=C(OCc1ccccc1)*

For series [1] the following is noted: 10.0 μg/i.t.
Text: Injections were given to fully conscious mice using the method described by Hylden and Wilcox (Hylden & Wilcox, 1980). Animals were manually restrained, the dorsal fur of each mouse was shaved, the spinal column was arched, and a 30-gauge needle attached in a PE20 Polyethylene tube to a 25-μl Hamilton microsyringe (Hamilton, Birmingham, UK) was inserted into the subdural space between the L4 and L5 vertebrae. Correct i.t. positioning of the needle tip was confirmed by a characteristic tail-flick response of animal. Intrathecal injections of volumes between 2-10 μl were given over a period between 5-10 seconds.
Series [2] relates to Cav3.2 channels. The series is described as follows: Ubiquitination state of Cav3.2 channels in CAD cells with proteasomal inhibitor (western blot densitometry). The class given is cell-based. Conditions: 5 μM MG132, CAD cells, mean±SEM. The protocol: Human embryonic kidney tsA-201 cells were cultured as described previously (Altier et al., 2006). Cells were transfected with calcium phosphate and used for biochemical analysis 72 hrs post-transfection. Neuronal derived CAD cells were cultured as described previously (Altier et al., 2011). These cells were transfected with Lipofectamine 2000 (Invitrogen) and used for biochemical and electrophysiological experiments 48-72 hrs post-transfection. Both tsA-201 and CAD cells were preincubated with 5 μM MG132 (MG) or 100 μM Chloroquine (Chl) overnight.
Cells were lysed in RIPA buffer (in mM; 50 Tris, 100 NaCl, 1% triton X-100, 1% NP-40, 0.2% SDS, 0.1% NaDeoxycholate, 20 NaF, 10 Na4P2O7 pyrophosphate, 10 EDTA+protease inhibitor cocktail, pH 7.5). A modified RIPA buffer (in mM; 50 Tris, 100 NaCl, 0.2% (v/v) triton X-100, 0.2% (v/v) NP-40, 10 EDTA+protease inhibitor cocktail, with or without 5 μM MG132 pH 7.5) was used to co-immunoprecipitate Cav3.2 channels with USP5 protein. Lysates from tsA-201, CAD cells and rat brain tissue were prepared by sonicating samples at 60% pulse for 10 seconds and by centrifugation at 13,000 rpm for 15 minutes at 4° C. […] Western blot quantification was performed using densitometry analysis (Quantity One-BioRad software). […]
In general terms: In western blotting, separated proteins are transferred to a membrane and probed.

Series [3] concerns Cav3.2 channels. In words: Cav3.2 ubiquitination in cultured mouse DRG neurons (immunoprecipitation, anti-ubiquitin western blot). The class given is cell-based. Particulars: 5 μM MG132 overnight.
A further series concerns CFA-injected mice. In words: CFA-induced persistent inflammatory pain, mechanical hyperalgesia. Conditions: acute delivery, 10.0 μg/i.t.

Experimental for CFA-injected mice: Mechanical hyperalgesia was measured using the digital plantar aesthesiometer (DPA, UgoBasile, Varese, Italy). […] Mice were allowed to acclimate for a period of at least 90 minutes. The DPA device was positioned beneath the animal, so that the filament was directly under the plantar surface of the ipsilateral hind paw. Each paw was tested three times per session.

For the molecule `CC(C)C[C@H](NC(=O)[C@H](CCCNC(=N)N)NC(=O)[C@H](CCCNC(=N)N)NC(=O)[C@H](CC(C)C)NC(=O)[C@H](CCCNC(=N)N)NC(=O)[C@H](CCCCN)NC(=O)[C@H](CCC(=O)O)NC(=O)[C@H](CCC(=O)O)NC(=O)[C@H](CCCNC(=N)N)NC(=O)[C@H](CCCNC(=N)N)NC(=O)[C@H](CCCNC(=N)N)NC(=O)[C@H](C)NC(=O)[C@H](CCC(=O)O)NC(=O)[C@H](CCCNC(=N)N)NC(=O)[C@H](CCCNC(=N)N)NC(=O)[C@H](CCCNC(=N)N)NC(=O)[C@H](CCC(N)=O)NC(=O)[C@H](CCCNC(=N)N)NC(=O)[C@H](CCCNC(=N)N)NC(=O)[C@H](CCCCN)NC(=O)[C@H](CCCCN)NC(=O)[C@H](CCCNC(=N)N)NC(=O)CNC(=O)[C@@H](N)Cc1ccc(O)cc1)C(=O)N[C@@H](CCC(=O)O)C(=O)N[C@@H](CCCNC(=N)N)C(=O)N[C@@H](CCCNC(=N)N)C(=O)N[C@@H](CCCNC(=N)N)C(=O)N[C@@H](CCCNC(=N)N)C(=O)N[C@@H](CCCCN)C(=O)N[C@@H](C)C(=O)N[C@@H](CCC(N)=O)C(=O)O` [Tat-3.2-III-IV linker peptide] (H-YGRKKRRQRRREARRREEKRLRRLERRRRKAQ-OH), in series [1] (2.5 μg/μl over 10 seconds), the abnormal behavior result is “no abnormal behavior was observed”. For the same molecule, in series [1] (5 μg/μl over 5 seconds), the “mice that developed shaking behavior” value is reported as 3 out of 10 and the “time to termination of shaking behavior after injection” value was no more than 15 min.

`CC(C)C[C@@H](C=O)NC(=O)[C@H](CC(C)C)NC(=O)[C@H](CC(C)C)NC(=O)OCc1ccccc1` [MG132] (Cbz-Leu-Leu-Leu-aldehyde): in the series with Cav3.2 channels [2] (n=4), the “ratio of ubiquitinated vs non-ubiquitinated channels (Ub-Cav3.2 channels/Cav3.2 channels), higher MW band (b)” value is 2.80±0.5. Also, in the series on Cav3.2 channels [2] (n=5), the “ratio of ubiquitinated vs non-ubiquitinated channels (Ub-Cav3.2 channels/Cav3.2 channels), lower MW band (a)” value is given as 3.2±1.1. Further, the Cav3.2 ubiquitination signal entry with Cav3.2 channels [3] is “only from immunoprecipitates from cells treated with 5 μM MG132”.

On to `COCC(=O)O[C@]1(CCN(C)CCCc2nc3ccccc3[nH]2)CCc2cc(F)ccc2[C@@H]1C(C)C` [mibefradil], for which the “pain in the CFA model (mechanical withdrawal threshold)” value with CFA-injected mice is on record as “significantly attenuate pain in the CFA model”.
